{"source": "patent US11414377B2", "about": "“Modulator of metabotropic and ionotropic transmembrane receptors and use thereof” (IBD THERAPEUTICS LLC, priority 2018, dated 2022)", "format_in_all_cases": "in vivo", "key": {"female balb/c mice": {"tested_on": "female balb/c mice", "test": "Oxazolone-induced inflammatory bowel disease model", "settings": "scored at 72 hours, control 2.00 ± 0.21", "protocol": "The study of the activity of Compound I on the oxazolone-induced inflammatory bowel disease model (ulcerative Colitis and Crohn's disease model) was carried out by means of a standard procedure (Heller F., Fuss I. J., Nieuwenhuis E. E., Blumberg R. S., Strober W. Oxazolone colitis, a Th2 colitis model resembling ulcerative colitis, is mediated by IL-13-producing NK-T cells//Immunity. 2002. P. 629-638).\nThe study was carried out on female balb/c mice. A 3.5 F catheter was introduced into the large intestine to a depth of 3-4 cm. Then, 150 μl of 1% oxazolone solution in 50% ethanol was slowly introduced into the colon lumen, the catheter was slowly removed and the mouse was kept in a vertical position (upside down) for 60 seconds to avoid the introduced solution flowing-out. Experimental animals were returned to the cages and the animal was kept in the warm. Compound I was administered intragastrically, three times: 1 hour, 25 hours and 49 hours after the rectal administration of oxazolone. 72 hours later after the rectal administration of oxazolone, the macroscopic assessment of intestinal wall damage is carried out with the help of score scale: 0 points—no lesions, 1 point—hyperemia, no ulcers, 2 points—hyperemia and thickening of the intestinal wall, no ulcers, 3 points—one ulcer without thickening of the intestine wall, 4 points—2 or more of the site of ulceration or inflammation, 5 points—2 or more severe sites of ulcerations and inflammation, or one site of ulceration/inflammation affecting >1 cm in length of the intestine, 6-10 points—the lesion affects >2 cm in length of the intestine, the score increases by 1 point per each 1 cm that is damaged.\nFor all data, descriptive statistics is applied: the arithmetic mean (M) and the standard error of the mean (m) are counted up. The normality of distribution of the values obtained in the course of the experiment was checked with the aid of the Shapiro-Wilk test. […] Distinctions were determined at 5% at a level of confidence."}, "balb/c male mice": {"tested_on": "balb/c male mice", "test": "Acute pain response model, administration of mustard oil in mice", "protocol": "The study of the activity of the compound on the acute pain response model was conducted using a standard procedure (Laird M. A., Martinez-Caro L., Garcia-Nicas E., Cervero F. A new model of visceral pain and referred hyperalgesia in the mouse//J. Pain 92 (2001). P. 335-342).\nThe study was carried out on balb/c male mice, the individual weight of which deviates from the mean value within the sex of no more than ±10%. First, the mice were lightly anesthetized (after 24 hours of fasting). Then 1% solution of mustard oil in physiological solution was introduced to the animals at 4 cm in depth with the help of catheter 3.5 F. The solvent was introduced to the healthy control. 5 minutes after the introduction of the mustard oil, the presence of pain in the animal (a number of abdominal lickings, abdominal wall abductions, lower abdominal deformity to the floor, abdominal distension) was evaluated during the first 20 minutes. Compound I was administered once intragastrically 1 hour before the administration of mustard oil. The obtained data were checked using the Grubb's test for the presence of the largest or smallest abnormal observation (ejection) in the sample. Values determined “to be eliminated” in this test were not used for further assay. For all data, descriptive statistics was used: a mean value (M) and standard error of the mean value (m) were counted up. The normality of distribution of the values obtained in the course of the experiment was checked with the aid of the Kolmogorov-Smirnov test. In the case of normal distribution, Student's t-test (t-test) was used to evaluate the inter-group distinctions. In the case of the distribution that is other than the normal one the Kruskall-Wallis test (with Dann's post hoc test) was used for the comparison of several groups. Distinctions were determined at 5% at a level of confidence."}, "[1]": {"test": "Pharmacokinetics and tissue bioavailability after oral administration to rats", "settings": "oral 10 mg/kg (therapeutic dose)", "protocol": "To confirm low systemic availability of Compound 1, the study of pharmacokinetics and bioavailability of Compound 1 was carried out after the oral administration to rats in a dose of 10 mg/kg. The study was carried out on 18 male Vistar rats. Blood sampling in the animals was carried out at given time points for 24 h after the administration of the preparation. The content of Compound 1 in plasma samples was analyzed by HPLC-MS/MS, the […] was 1 ng/ml."}}}
{"smiles": "O=C(Cc1ccc(O)cc1)N[C@@H](Cc1ccccc1)C(=O)NCCc1ccccc1", "note": "[Compound I, 2-phenylethylamide N-(p-hydroxyphenylacetyl)phenylalanine]", "values": [{"measurement": "The degree of colon wall damage", "setting": "female balb/c mice; 10 mg/kg, 1, 25 and 49 hours after oxazolone", "result": "2.20 ± 0.96", "unit": "points"}, {"measurement": "The degree of colon wall damage", "setting": "female balb/c mice; 20 mg/kg intragastrically 1, 25 and 49 hours after oxazolone", "result": "0.00 ± 0.00& points"}, {"measurement": "Number of pain sensations, 0-20 min", "setting": "balb/c male mice; 15 mg/kg once intragastrically 1 hour prior to mustard oil, control 10.4 ± 1.59, intact 2.2 ± 0.33", "result": "2.56 ± 0.78 &"}, {"measurement": "Number of pain sensations, 0-20 min", "setting": "balb/c male mice; 1.5 once intragastrically 1 hour prior to mustard oil, control 10.4 ± 1.59", "result": "14.8 ± 3.01"}, {"measurement": "Number of pain sensations, 0-20 min", "setting": "balb/c male mice; 3 once intragastrically 1 hour prior to mustard oil, control 10.4 ± 1.59", "result": "8.56 ± 0.94"}, {"measurement": "Number of pain sensations, 0-20 min", "setting": "balb/c male mice; 7.5 once intragastrically 1 hour prior to mustard oil, control 10.4 ± 1.59", "result": "15.1 ± 1.7"}, {"measurement": "Penetration into the brain", "setting": "[1]", "result": "does not penetrate into the brain of rats"}]}
